Consider seven molecules from article PMC10452181, “Synthesis and Biological Evaluation of Cyclobutane-Based β3 Integrin Antagonists: A Novel Approach to Targeting Integrins for Cancer Therapy” (Cancers, 2023).

In one data set the test system is Sk-Mel-2. In words: in vitro. The data set is classed as cell-based, human. The procedure: Before use in cell-based assays of integrin function, the effect of compounds on cell proliferation was tested using the MTT assay to avoid adhesion results being confounded by cell death (Supplementary Table S1). The effect of compounds on cell adhesion was then initially tested at a single, nontoxic concentration to identify active antagonists for further characterisation; those displaying a promising activity in the adhesion assay were tested at a wider range of concentrations to determine the IC50 (Table 2). […] Nevertheless, it is a cost-effective initial screening method. page 4: Table S1. Cytotoxicity of compounds on the cell lines used in the functional assays (measured by MTT assay). Cells (2000 cells/well for Sk-Mel-2; 1 x 10^4 cells/mL for M14) were incubated for 96 hours at 37 ° C in a total volume of 200 μL/well (180 μL medium + 20 μ L test compound solution). After 96 hours, the medium was replaced by fresh medium containing 0.5 mg/ml (end conc.) MTT per well, incubated for 4 h then the plate processed and read as described in the main text. […] ICT9053 41 naphthyridine 1 NHSO2Mes H Ester 52.6 ± 0.6 72.7 ± 9.8 ICT9065 42 naphthyridine 1 H H Ester >100 - ICT9079 43 naphthyridine 0 NHSO2Mes H Ester ~100 - ICT9061 44 naphthyridineT 1 NHSO2Mes H Ester 46.8 ± 10.7 - […] Ester 65.4 ± 11.1 >100 […] Ester 9.6 ± 5.7 >100 […] Ester >100 - […] Ester 54.6 ± 11.0 - […] Ester >5 3.3 ± 0.8 […] ICT9028 51 pyrimidine 2 NHSO2Ph H Acid >100 - ICT9031 52 pyrimidineT 1 NHSO2Mes H Acid >100 - ICT9090 53 pyrimidineT 2 NHSO2Mes H Acid >50 - ICT9029 54 pyrimidineT 2 NHSO2Ph H Acid >100 - ICT9063 55 naphthyridine 1 NHSO2Mes H Acid 61.7 ± 2.8 - […] Acid 45.5 ± 7.9 >100 […] 42.5 ± 1.8 >50 RGDS >50 - T trans configuration of cyclobutane sidechains.

The target of a further data set is T1, αvβ3 (Homo sapiens, UniProt P05106+P06756).
T1 construct: endogenous in cells; host or cells: SK-Mel-2 melanoma cells
In words: Sk-Mel-2 cell adhesion to immobilised fibronectin (cell-binding assay, MTT readout). The settings on record: Sk-Mel-2 adhesion to Fn, mean ± SD. The data set is classed as cell-based. The procedure:
First, 96-well plates (Corning, VWR) were coated overnight at 4 °C with 0.5 μg/well fibronectin (Sigma). SK-Mel-2 cells were trypsinised, washed and resuspended in RPMI medium only at 10^5 cells/mL. Cells (100 µL/well) were treated with compound (DMSO final concentration 0.1%) at the indicated concentration for 4 hrs on a rotary shaker. Plates were washed (3 × PBS) and blocked with PBS/5% BSA for 2 hrs at 37 °C prior to adding the cells. Cells were incubated on the plates at 37 °C in a humidified chamber with 5% CO2 for 1 hr. The plates were washed 3× with PBS and a 200 µL/well RPMI medium containing 10% FCS added. The plates were incubated overnight at 37 °C as above. Finally, 0.5 mg/mL of 3-(4,5-dimethythiazol-2-yl)-2,5-diphenyl tetrazolium bromide (MTT) was added to each well and the plates incubated for a further 4 h. The medium was removed, and the insoluble formazan dissolved in 150 µL of DMSO. Absorbance was measured at 540 nm using a Thermo Multiskan EX (Thermofisher, UK)and Ascent Software (v2.6). Total binding was determined based on controls lacking any compounds (100% binding) in fibronectin-coated wells and uncoated wells blocked with BSA (0% binding) and corrected for background (no cells, fibronectin-coated).
As an initial test of anti-β3 activity, the ability of compounds to inhibit the adhesion of melanoma cells expressing high levels of αvβ3 and low levels of other RGD-binding integrins such as αvβ5 and α5β1 to immobilised fibronectin was evaluated.
Cells were seeded onto precoated plates in the presence or absence of putative antagonists and the number of adherent cells quantified colorimetrically.

T1 sequence (P06756 31-889 limits assumed): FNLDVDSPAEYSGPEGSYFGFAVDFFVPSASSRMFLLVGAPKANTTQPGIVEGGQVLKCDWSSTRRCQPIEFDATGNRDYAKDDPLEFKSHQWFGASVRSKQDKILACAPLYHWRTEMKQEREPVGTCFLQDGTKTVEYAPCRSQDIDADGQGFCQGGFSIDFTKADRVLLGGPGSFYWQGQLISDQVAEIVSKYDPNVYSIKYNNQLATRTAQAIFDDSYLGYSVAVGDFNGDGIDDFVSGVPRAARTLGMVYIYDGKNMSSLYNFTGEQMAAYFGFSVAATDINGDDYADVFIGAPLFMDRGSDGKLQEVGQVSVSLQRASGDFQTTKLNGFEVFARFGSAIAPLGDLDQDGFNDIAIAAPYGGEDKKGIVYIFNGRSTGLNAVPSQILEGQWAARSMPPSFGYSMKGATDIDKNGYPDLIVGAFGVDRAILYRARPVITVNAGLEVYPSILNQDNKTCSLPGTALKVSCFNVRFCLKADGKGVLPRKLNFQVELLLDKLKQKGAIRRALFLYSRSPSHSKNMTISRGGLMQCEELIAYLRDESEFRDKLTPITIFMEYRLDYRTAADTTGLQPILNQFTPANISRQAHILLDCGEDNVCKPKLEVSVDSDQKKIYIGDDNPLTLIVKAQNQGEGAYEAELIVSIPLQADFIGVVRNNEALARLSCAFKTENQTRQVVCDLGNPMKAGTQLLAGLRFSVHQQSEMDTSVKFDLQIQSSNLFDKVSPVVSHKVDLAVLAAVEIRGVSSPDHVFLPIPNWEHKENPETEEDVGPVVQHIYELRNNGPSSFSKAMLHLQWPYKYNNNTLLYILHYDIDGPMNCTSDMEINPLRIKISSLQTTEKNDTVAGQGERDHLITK
T1 sequence (P06756 891-1048 partner limits assumed): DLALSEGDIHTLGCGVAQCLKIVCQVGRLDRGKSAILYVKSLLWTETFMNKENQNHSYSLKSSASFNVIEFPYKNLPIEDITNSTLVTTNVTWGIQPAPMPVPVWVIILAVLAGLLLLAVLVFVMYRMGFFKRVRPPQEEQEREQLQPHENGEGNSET
T1 sequence (P05106 27-788): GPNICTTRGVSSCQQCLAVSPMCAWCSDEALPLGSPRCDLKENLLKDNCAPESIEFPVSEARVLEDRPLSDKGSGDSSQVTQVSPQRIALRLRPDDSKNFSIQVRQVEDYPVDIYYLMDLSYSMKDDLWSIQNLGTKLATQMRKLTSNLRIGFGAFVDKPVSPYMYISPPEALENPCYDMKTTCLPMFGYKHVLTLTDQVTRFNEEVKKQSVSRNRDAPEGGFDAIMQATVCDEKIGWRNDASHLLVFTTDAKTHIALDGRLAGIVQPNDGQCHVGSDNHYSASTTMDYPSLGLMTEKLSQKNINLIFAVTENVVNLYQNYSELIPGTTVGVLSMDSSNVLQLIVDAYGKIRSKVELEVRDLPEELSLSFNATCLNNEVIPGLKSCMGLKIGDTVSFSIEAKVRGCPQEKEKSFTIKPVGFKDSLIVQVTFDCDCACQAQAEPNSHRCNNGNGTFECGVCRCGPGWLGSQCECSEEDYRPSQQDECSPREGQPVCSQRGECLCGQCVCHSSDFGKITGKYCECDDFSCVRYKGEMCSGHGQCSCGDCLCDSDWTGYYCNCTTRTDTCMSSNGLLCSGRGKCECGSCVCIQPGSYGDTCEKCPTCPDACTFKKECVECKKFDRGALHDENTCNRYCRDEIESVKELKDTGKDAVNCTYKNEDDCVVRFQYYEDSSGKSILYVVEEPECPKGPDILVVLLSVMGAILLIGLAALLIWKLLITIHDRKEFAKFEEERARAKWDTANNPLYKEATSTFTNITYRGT

Regarding `COC(=O)[C@@H](CNC(=O)[C@H]1C[C@@H](CCCNc2ncccn2)C1)NS(=O)(=O)c1ccccc1` [ICT9021 25, (R)-methyl 2-(phenylsulfonamido)-3-((1r,3s)-3-(3-(pyrimidin-2-ylamino)propyl)cyclobutanecarboxamido)propanoate], the IC50 with Sk-Mel-2 is greater than 100 µM. Moreover, the “Adhesion % Inhibition @ 50 μM” value at αvβ3 turned out to be 22.2 ± 22.3%.
For `COC(=O)[C@H](CNC(=O)C1CC(CCc2ccc3cccnc3n2)C1)NS(=O)(=O)c1ccccc1` (stereo partly drawn) [ICT9054 40, (S)-methyl 3-((1r,3r)-3-(2-(1,8-naphthyridin-2-yl)ethyl)cyclobutanecarboxamido)-2-(phenylsulfonamido)propanoate], inhibition with Sk-Mel-2 was half-maximal at 65.2 ± 1.3 µM (IC50). Moreover, on αvβ3, the “Adhesion % Inhibition @ 5 μM” value came out at 48.7 ± 30.6%.
With `COC(=O)[C@H](CNC(=O)C1CC(CCc2ccc3cccnc3n2)C1)NS(=O)(=O)c1c(C)cc(C)cc1C` (stereo partly drawn) [ICT9061 44, (S)-methyl 3-((1s,3s)-3-(2-(1,8-naphthyridin-2-yl)ethyl)cyclobutanecarboxamido)-2-(2,4,6-trimethylphenylsulfonamido)propanoate], the IC50 with Sk-Mel-2 came out at 46.8 ± 10.7 µM. Moreover, on αvβ3, the “Adhesion % Inhibition @ 5 μM” value turned out to be 32.4 ± 16.1%.
`COC(=O)CCNC(=O)C1CC(CCc2ccc3cccnc3n2)C1` (stereo not shown) [ICT9065 42, Methyl 3-((1r,3s)-3-(2-(1,8-naphthyridin-2-yl)ethyl)cyclobutanecarboxamido)propanoate]: in the data set on Sk-Mel-2, the IC50 was greater than 100 µM.
As to `COC(=O)CCNC(=O)[C@H]1C[C@@H](CCc2ccc3c(n2)NCCC3)C1` [ICT9066 47, Methyl 3-((1r,3s)-3-(2-(5,6,7,8-tetrahydro-1,8-naphthyridin-2-yl)ethyl)cyclobutanecarboxamido)propanoate], the IC50 with Sk-Mel-2 is greater than 100 µM. For the same molecule, the “Adhesion % Inhibition @ 50 μM” value on αvβ3 was 22.4 ± 29.3%.
Take `COC(=O)[C@H](CNC(=O)C1CC(Cc2ccc3cccnc3n2)C1)NS(=O)(=O)c1c(C)cc(C)cc1C` (stereo partly drawn) [ICT9079 43, (S)-methyl 3-((1s,3r)-3-((1,8-naphthyridin-2-yl)methyl)cyclobutanecarboxamido)-2-(2,4,6-trimethylphenylsulfonamido)propanoate]: the IC50 with Sk-Mel-2 was roughly 100 µM. Also, the “Adhesion % Inhibition @ 5 μM” value at αvβ3 came out at 33.5 ± 26.2%.
In turn, `COC(=O)[C@H](CNC(=O)C1CC(Cc2ccc3c(n2)NCCC3)C1)NS(=O)(=O)c1c(C)cc(C)cc1C` (stereo partly drawn) [ICT9080 48, (S)-methyl 3-((1s,3r)-3-((5,6,7,8-tetrahydro-1,8-naphthyridin-2-yl)methyl)cyclobutanecarboxamido)-2-(2,4,6-trimethylphenylsulfonamido)propanoate] registered an IC50 in the data set with Sk-Mel-2 of 54.6 ± 11 µM. In addition, at αvβ3, the “Adhesion % Inhibition @ 5 μM” value worked out at 61.5 ± 11.1%.

As usually defined, the IC50 is the point on the concentration scale where inhibition reaches its midpoint.
